Data: US9617289B2, “RSV antiviral compounds” (JANSSEN R&D IRELAND, priority 2012, dated 2017)

These compounds were tested on rgRSV224 virus (assay: Antiviral activity: inhibition of rgRSV224 (GFP-expressing RSV) replication in HeLa cells). Settings: human respiratory syncytial virus, HeLa, 72 h, read-out: RSV-wt_pEC50, rgRSV224 (MOI=0.02) in HeLa cells, GFP expression three days post-virus exposure.
Assay type: cell-based, respiratory syncytial virus
How it was run: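 HeLa cells infected with GFP-expressing rgRSV224 at MOI 0.02 alongside 4-fold compound dilutions in duplicate (0.5% DMSO). Incubated 3 days at 37 °C; EC50 taken as 50% inhibition of GFP expression by laser microscopy. CC50 measured in parallel uninfected cells by ATP content after 3 days; SI = CC50/EC50.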

Row | SMILES | EC50 [nM]
1 | CS(=O)(=O)CCCn1c(CN2C(=O)C3(CNC3)c3ccccc32)cc2cc(Cl)ccc21 [Compound 134, 1′-({5-Chloro-1-[3-(methylsulfonyl)propyl]-1H-indol-2-yl}methyl)spiro[azetidine-3,3′-indol]-2′(1′H)-one] | 2
2 | COC(=O)N[C@H]1C[C@]2(C1)C(=O)N(Cc1nc3cc(Cl)ccc3n1CCCC#N)c1ccccc12 [Compound 135, methyl ((1s,3s)-1′-((5-chloro-1-(3-cyanopropyl)-1H-benzo[d]imidazol-2-yl)methyl)-2′-oxospiro[cyclobutane-1,3′-indolin]-3-yl)carbamate] | 0.0955
3 | COC(=O)N[C@H]1C[C@@]2(C1)C(=O)N(Cc1nc3cc(Cl)ccc3n1CCCC#N)c1ccccc12 [Compound 136, methyl ((1r,3r)-1′-((5-chloro-1-(3-cyanopropyl)-1H-benzo[d]imidazol-2-yl)methyl)-2′-oxospiro[cyclobutane-1,3′-indolin]-3-yl)carbamate] | 0.245
4 | N#CCCCn1c(CN2C(=O)C3(CN(C(=O)C4(O)CC4)C3)c3ccccc32)cc2cc(Cl)ccc21 [Compound 137] | 0.107
5 | CC(C)(O)C(=O)N1CCC2(C1)C(=O)N(Cc1nc3cc(Cl)ccc3n1CCCS(C)(=O)=O)c1ccccc12 (stereo not shown) [Compound 138, 1-((5-chloro-1-(3-(methylsulfonyl)propyl)-1H-benzo[d]imidazol-2-yl)methyl)-1′-(2-hydroxy-2-methylpropanoyl)spiro[indoline-3,3′-pyrrolidlin]-2-one] | 2.14
6 | N#CCCCn1c(CN2c3ccccc3[C@]3(C[C@@H](N)C3)C2=O)nc2cc(Cl)ccc21 [Compound 148, 4-(2-(((1r,3r)-3-amino-2′-oxospiro[cyclobutane-1,3′-indolin]-1′-yl)methyl)-5-chloro-1H-benzo[d]imidazol-1-yl)butanenitrile] | 4.68
7 | N#CCCCn1c(CN2c3ccccc3[C@]3(C[C@H](N)C3)C2=O)nc2cc(Cl)ccc21 [Compound 149, 4-(2-(((1s,3s)-3-amino-2′-oxospiro[cyclobutane-1,3′-indolin]-1′-yl)methyl)-5-chloro-1H-benzo[d]imidazol-1-yl)butanenitrile] | 1.2
8 | CC(=O)OCCOC(=O)N1CCC2(CC1)C(=O)N(Cc1cc3cc(Cl)ccc3n1CCCC#N)c1cnccc12 [Compound 150, 2-(Acetyloxy)ethyl 1′-{[5-chloro-1-(3-cyanopropyl)-1H-indol-2-yl]methyl}-2′-oxo-1′,2′-dihydro-1H-spiro[piperidine-4,3′-pyrrolo-[2,3-c]pyridine]-1-carboxylate] | 0.049
9 | CC(C)(O)C(=O)N1CC2(C1)C(=O)N(Cc1cc3cc(Cl)ccc3n1CCCS(C)(=O)=O)c1ccccc12 [Compound 152, 1′-({5-Chloro-1-[3-(methylsulfonyl)propyl]-1H-indol-2-yl}methyl)-1-(2-hydroxy-2-methylpropanoyl)spiro[azetidine-3,3′-indol]-2′(1′H)-one] | 1.58
10 | CC(C)(O)C(=O)N1CCC2(CC1)C(=O)N(Cc1c(C(N)=O)c3cc(Cl)ccc3n1CCCCF)c1cnccc12 [Compound 153, 5-Chloro-1-(4-fluorobutyl)-2-{[1-(2-hydroxy-2-methylpropanoyl)-2′-oxospiro[piperidine-4,3′-pyrrolo[2,3-c]pyridin]-1′(2′H)-yl]methyl}-1H-indole-3-carboxamide] | 0.0575
11 | CC(C)(O)C(=O)N1CCC2(C1)C(=O)N(Cc1nc3cc(Cl)ccc3n1CCCC#N)c1ccccc12 (stereo not shown) [Compound 154, 4-(5-Chloro-2-{[1′-(2-hydroxy-2-methylpropanoyl)-2-oxospiro[indole-3,3′-pyrrolidin]-1(2H)-yl]methyl}-1H-benzimidazol-1-yl)butanenitrile] | 1.17
12 | CC(C)(O)C(=O)N1CCC2(CC1)C(=O)N(Cc1cc3cc(Cl)ccc3n1CCCCO)c1cnccc12 [Compound 155, 1′-{[5-Chloro-1-(4-hydroxybutyl)-1H-indol-2-yl]methyl}-1 - (2-hydroxy-2-methylpropanoyl)spiro[piperidine-4,3′-pyrrolo[2,3-c]pyridin]-2′(1′H)-one] | 0.17
13 | CC(C)(C)OC(=O)N1CCC2(CC1)C(=O)N(Cc1c(C(N)=O)c3cc(Cl)ccc3n1CCCCF)c1cnccc12 [Compound 156, tert-Butyl 1′-{[3-carbamoyl-5-chloro-1-(4-fluorobutyl)-1H-indol-2-yl]methyl}-2′-oxo-1′,2′-dihydro-1H-spiro[piperidine-4,3′-pyrrolo[2,3-c]pyridine]-1-carboxylate] | 0.0676
14 | CC(C)(C)OC(=O)N1CCC2(C1)C(=O)N(Cc1nc3cc(Cl)ccc3n1CCCC#N)c1ccccc12 (stereo not shown) [Compound 157, tert-Butyl 1-{[5-chloro-1-(3-cyanopropyl)-1H-benzimidazol-2-yl]methyl}-2-oxo-1,2-dihydro-1′H-spiro[indole-3,3′-pyrrolidine]-1′-carboxylate] | 3.98
15 | O=C1CC2(C1)C(=O)N(Cc1nc3cc(Cl)ccc3n1CCCCF)c1ccccc12 [Compound 158, 1-{[5-Chloro-1-(4-fluorobutyl)-1H-benzimidazol-2-yl]methyl}-3H-spiro[cyclobutane-1,3′-indole]-2′,3(1′H)-dione] | 0.575
16 | O=C1N(Cc2cc3cc(Cl)ccc3n2CCCCF)c2cnccc2C12CCNCC2 [Compound 162] | 4.57
17 | CC(C)(C)OC(=O)N1CC2(C1)C(=O)N(Cc1cc3cc(Cl)ccc3n1CCCS(C)(=O)=O)c1ccccc12 [Compound 163, tert-Butyl 1′-({5-chloro-1-[3-(methylsulfonyl)propyl]-1H-indol-2-yl}methyl)-2′-oxo-1′,2′-dihydro-1H-spiro[azetidine-3,3′-indole]-1-carboxylate] | 0.2
18 | N#CCCCn1c(CN2C(=O)C3(CN(C(=O)C(O)CO)C3)c3ccccc32)cc2cc(Cl)ccc21 (stereo not shown) [Compound 165, 4-(5-chloro-2-((1-(2,3-dihydroxypropanoyl)-2′-oxospiro[azetidine-3,3′-indolin]-1′-yl)methyl)-1H-indol-1-yl)butanenitrile] | 0.145
19 | O=C(C(O)CO)N1CCC2(CC1)C(=O)N(Cc1cc3cc(Cl)ccc3n1CCCCF)c1cnccc12 (stereo not shown) [Compound 167, 1′-{[5-Chloro-1-(4-fluorobutyl)-1H-indol-2-yl]methyl}-1-(2,3-dihydroxypropanoyl)spiro[piperidine-4,3′-pyrrolo[2,3-c]pyridin]-2′(1′H)-one] | 0.123
20 | CNC(=O)O[C@H]1C[C@@]2(C1)C(=O)N(Cc1nc3cc(Cl)ccc3n1CCCC#N)c1ccccc12 [Compound 168, (1r,3r)-1′-((5-chloro-1-(3-cyanopropyl)-1H-benzo[d]imidazol-2-yl)methyl)-2′-oxospiro[cyclobutane-1,3′-indolin]-3-yl methylcarbamate] | 0.0347
21 | CC(=O)NS(=O)(=O)N1CC2(C1)C(=O)N(Cc1nc3cc(Cl)ccc3n1CCCC#N)c1ccccc12 [Compound 170, N-[(1′-{[5-Chloro-1-(3-cyanopropyl)-1H-benzimidazol-2-yl]methyl}-2′-oxo-1′,2′-dihydro-1H-spiro[azetidine-3,3′-indol]-1-yl)sulfonyl]acetamide] | 0.269
22 | N#CCCCn1c(CN2c3ccccc3[C@]3(C[C@@H](OC(=O)NC4CC4)C3)C2=O)nc2cc(Cl)ccc21 [Compound 173, (1r,3r)-1′-((5-chloro-1-(3-cyanopropyl)-1H-benzo[d]imidazol-2-yl)methyl)-2′-oxospiro[cyclobutane-1,3′-indolin]-3-yl cyclopropylcarbamate] | 0.0224
